Measurements from ChEMBL document CHEMBL1201862, “PubChem BioAssay data set” (2004).
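Following 48 hours of exposure in 96-well plates, responses at five concentrations were used to interpolate endpoints linearly. GI50: concentration for 50% inhibition of growth.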 The source made the active and inactive calls. No stated cut-off is given here; in the data, active = GI50 up to about 1.1 µM and inactive = higher.

Columns and labels:
Assay in all cases: NCI-60 cell line screen, 48 h
786-0 = test system: 786-0
CCRF-CEM = test system: CCRF-CEM
HCC 2998 = test system: HCC 2998
HCT-15 = test system: HCT-15
HL-60 = test system: HL-60
HOP-62 = test system: HOP-62
HOP-92 = test system: HOP-92
KM12 = test system: KM12
LOX IMVI = test system: LOX IMVI
MDA-MB-231 = test system: MDA-MB-231
MDA-MB-435 = test system: MDA-MB-435
NCI-H23 = test system: NCI-H23
NCI/ADR-RES = test system: NCI/ADR-RES
OVCAR-3 = test system: OVCAR-3
PC-3 = test system: PC-3
RPMI-8226 = test system: RPMI-8226
SK-MEL-5 = test system: SK-MEL-5
SK-OV-3 = test system: SK-OV-3
SN12C = test system: SN12C
SNB-75 = test system: SNB-75

Compound | GI50 (786-0) | GI50 (CCRF-CEM) | GI50 (HCC 2998) | GI50 (HCT-15) | GI50 (HL-60) | GI50 (HOP-62) | GI50 (HOP-92) | GI50 (KM12) | GI50 (LOX IMVI) | GI50 (MDA-MB-231) | GI50 (MDA-MB-435) | GI50 (NCI-H23) | GI50 (NCI/ADR-RES) | GI50 (OVCAR-3) | GI50 (PC-3) | GI50 (RPMI-8226) | GI50 (SK-MEL-5) | GI50 (SK-OV-3) | GI50 (SN12C) | GI50 (SNB-75)
C[N+](C)(C)/N=C\c1ccc(O)c(O)c1 | > 100 µM (inactive) | > 100 µM (inactive) | > 100 µM (inactive) | > 100 µM | > 100 µM (inactive) | > 100 µM (inactive) | > 100 µM (inactive) | > 100 µM (inactive) | > 100 µM (inactive) | > 100 µM (inactive) | > 100 µM (inactive) | > 100 µM (inactive) | > 100 µM (inactive) | > 100 µM (inactive) | > 100 µM (inactive) | > 100 µM (inactive) | > 100 µM (inactive) | > 100 µM (inactive) | > 100 µM (inactive) | 
CCCCc1c(OC)cc(O)c2c1C(=O)c1[nH]c(C(=O)O)c(O)c(=O)c1C2=O | 1.62 µM (inactive) | 42.1 µM (inactive) | 19.8 µM (inactive) | 23.8 µM | 1.56 µM (inactive) | 1.57 µM (inactive) | 3.19 µM (inactive) | 29.4 µM (inactive) | 4.01 µM (inactive) | 0.847 µM (active) | 5.56 µM (inactive) | 2.81 µM (inactive) | 4.18 µM (inactive) | 0.908 µM (active) | 6.12 µM (inactive) | > 100 µM (inactive) |  | 4.35 µM (inactive) | 6.08 µM (inactive) | 3.26 µM (inactive)
COc1cc2c(cc1OC)C(C1CC1)ON(C)CC2 (centres undefined) | > 100 µM (inactive) | > 100 µM (inactive) | > 100 µM (inactive) | > 100 µM | > 100 µM (inactive) | > 100 µM (inactive) | > 100 µM (inactive) | > 100 µM (inactive) | > 100 µM (inactive) | > 100 µM (inactive) | > 100 µM (inactive) | > 100 µM (inactive) | > 100 µM (inactive) | > 100 µM (inactive) | > 100 µM (inactive) | > 100 µM (inactive) | > 100 µM (inactive) |  | > 100 µM (inactive) | > 100 µM (inactive)
NC(=S)N/N=C(/C(=O)Nc1nc2ccc([N+](=O)[O-])cc2s1)C1C(=O)NC(=S)NC1=O | > 100 µM (inactive) | > 100 µM (inactive) | 56 µM (inactive) | 42.7 µM | > 100 µM (inactive) |  | 77.6 µM (inactive) | > 100 µM (inactive) | > 100 µM (inactive) | > 100 µM (inactive) | > 100 µM (inactive) | > 100 µM (inactive) | > 100 µM (inactive) | > 100 µM (inactive) | 63.1 µM (inactive) | > 100 µM (inactive) |  | > 100 µM (inactive) | > 100 µM (inactive) | 
Nc1ccc(S(=O)(=O)c2ccc(/N=[N+](\[O-])c3ccc(S(=O)(=O)c4ccc(N)cc4)cc3)cc2)cc1 | 18.5 µM (inactive) | > 100 µM (inactive) | > 100 µM (inactive) | > 100 µM | > 100 µM (inactive) | 20.4 µM (inactive) | 10.1 µM (inactive) | > 100 µM (inactive) | > 60.7 µM (inactive) | 35.8 µM (inactive) | > 100 µM (inactive) | 34.8 µM (inactive) | > 74.3 µM (inactive) | 31 µM (inactive) | > 55.3 µM (inactive) | > 100 µM (inactive) | 44 µM (inactive) | 24.9 µM (inactive) | > 68.9 µM (inactive) | 8.02 µM (inactive)
COc1cc(/C=N/N=C2NCCN2)ccc1O | > 100 µM (inactive) | > 100 µM (inactive) | > 100 µM (inactive) | > 100 µM | > 100 µM (inactive) | > 100 µM (inactive) | > 100 µM (inactive) | > 100 µM (inactive) | > 100 µM (inactive) | > 100 µM (inactive) | > 100 µM (inactive) | > 100 µM (inactive) | > 100 µM (inactive) | > 100 µM (inactive) | > 100 µM (inactive) | > 100 µM (inactive) | > 100 µM (inactive) | > 100 µM (inactive) | > 100 µM (inactive) | > 100 µM (inactive)
O=C(C/C(=N/O)c1cc(-c2ccccc2)no1)c1ccccc1 | 22.1 µM (inactive) | > 100 µM (inactive) | > 100 µM (inactive) | > 100 µM | 29 µM (inactive) | 23.8 µM (inactive) | 22.2 µM (inactive) | > 100 µM (inactive) | 36.4 µM (inactive) | 21.4 µM (inactive) | > 100 µM (inactive) | 20.9 µM (inactive) | 25.8 µM (inactive) | 23.2 µM (inactive) | 77.6 µM (inactive) | > 100 µM (inactive) | 80.9 µM (inactive) | 17.1 µM (inactive) | 38.7 µM (inactive) | 
C=C(C)[C@H]1C[C@@H]2O[C@@](O)(/C(C)=C\C(=O)/C=C(/C)C[C@H]3OC(=O)[C@@]24O[C@H]34)[C@@H]1O | > 100 µM (inactive) | > 100 µM (inactive) | > 100 µM (inactive) | > 100 µM | > 100 µM (inactive) |  | > 100 µM (inactive) | > 100 µM (inactive) | > 100 µM (inactive) | > 100 µM (inactive) | > 100 µM (inactive) |  | > 100 µM (inactive) | > 100 µM (inactive) | > 100 µM (inactive) | > 100 µM (inactive) | > 100 µM (inactive) | > 100 µM (inactive) | > 100 µM (inactive) | > 100 µM (inactive)
COc1ccc(/C=C2/C(C)=NN(c3cccc(Cl)c3)/C2=N/c2nc3ccccc3s2)cc1 | 20.3 µM (inactive) | 25.3 µM (inactive) | 18.3 µM (inactive) | 17.5 µM | 20.7 µM (inactive) | 20 µM (inactive) | 20.9 µM (inactive) | 30.4 µM (inactive) | 18 µM (inactive) | 24.7 µM (inactive) | 33.7 µM (inactive) | 16.9 µM (inactive) | 22.9 µM (inactive) | 20.2 µM (inactive) | 19 µM (inactive) | 22.7 µM (inactive) | 16.6 µM (inactive) | 24 µM (inactive) |  | 26.8 µM (inactive)
CCN(CC)c1ccc2cc(C(=O)Nc3cccc4ccccc34)c(=N)oc2c1 | 16.8 µM (inactive) | > 100 µM (inactive) | > 100 µM (inactive) | > 100 µM | 7.98 µM (inactive) | > 10 µM (inactive) | > 100 µM (inactive) | > 100 µM (inactive) | > 100 µM (inactive) | > 100 µM (inactive) | 91.8 µM (inactive) |  | > 100 µM (inactive) |  | > 100 µM (inactive) | > 100 µM (inactive) | 43.1 µM (inactive) | > 100 µM (inactive) | > 100 µM (inactive) | > 100 µM (inactive)
COc1ccc2c(c1)CCC1=C/C(=N\NC(N)=O)CCC12C (centres undefined) | > 10 µM (inactive) | > 10 µM (inactive) | > 10 µM (inactive) | > 10 µM | 9.62 µM (inactive) | > 10 µM (inactive) | > 10 µM (inactive) | > 10 µM (inactive) | > 10 µM (inactive) | > 10 µM (inactive) | 5.24 µM (inactive) | > 10 µM (inactive) | > 10 µM (inactive) | > 10 µM (inactive) | > 10 µM (inactive) | > 10 µM (inactive) | > 10 µM (inactive) | > 10 µM (inactive) | > 10 µM (inactive) | > 10 µM (inactive)
CCSC1=N/C(=C\c2ccco2)C(NN)=N1 | > 50 µM (inactive) | > 50 µM (inactive) |  | > 50 µM | > 50 µM (inactive) | > 50 µM (inactive) | > 50 µM (inactive) | > 50 µM (inactive) | > 50 µM (inactive) | > 50 µM (inactive) | > 50 µM (inactive) | > 50 µM (inactive) | > 50 µM (inactive) | > 50 µM (inactive) | > 50 µM (inactive) | > 50 µM (inactive) | > 50 µM (inactive) | > 50 µM (inactive) | > 50 µM (inactive) | > 50 µM (inactive)
CN(C)/C=[N+]1/[C@@H](Cc2ccccc2)C(=O)O[B-]1(F)c1ccccc1 (some centres undefined) | > 100 µM (inactive) | > 100 µM (inactive) | > 100 µM (inactive) | > 100 µM | > 100 µM (inactive) | > 100 µM (inactive) | > 100 µM (inactive) |  | > 100 µM (inactive) | > 100 µM (inactive) | > 100 µM (inactive) | > 100 µM (inactive) | > 100 µM (inactive) | > 100 µM (inactive) | > 100 µM (inactive) | > 100 µM (inactive) | > 100 µM (inactive) | > 100 µM (inactive) | > 100 µM (inactive) | > 100 µM (inactive)
CN(C)Cc1cc(C(=O)/C=C/c2ccc(Br)cc2)cc(CN(C)C)c1O | 5.28 µM (inactive) | 3.24 µM (inactive) | 13.7 µM (inactive) | 11.8 µM | 3.4 µM (inactive) | 4.33 µM (inactive) | 3.33 µM (inactive) | 2.16 µM (inactive) | 1.99 µM (inactive) | 3.21 µM (inactive) | 14.3 µM (inactive) | 15.7 µM (inactive) | 16.7 µM (inactive) | 3.24 µM (inactive) | 1.67 µM (inactive) | 4.74 µM (inactive) | 10.7 µM (inactive) |  | 2.84 µM (inactive) | 11.3 µM (inactive)
C=C(C)[C@@H]1CCC2=C(CC[C@]3(C)[C@@H]([C@@H](CCC=C(C)C)C(=O)O)[C@H](O)C[C@@]23C)[C@@]1(C)CCC(=O)O [PORICOIC ACID G] | 85.9 µM (inactive) | 63.2 µM (inactive) |  | 38.6 µM | 0.0393 µM (active) | 53.2 µM (inactive) | 32.1 µM (inactive) | 47.4 µM (inactive) | 61.2 µM (inactive) | > 100 µM (inactive) | > 100 µM (inactive) | 87.3 µM (inactive) | > 100 µM (inactive) | > 100 µM (inactive) | 45.6 µM (inactive) | 88.7 µM (inactive) | 92.7 µM (inactive) | > 100 µM (inactive) | 52.4 µM (inactive) | 60.5 µM (inactive)
